Test results published in US20110118202A1, “Molecules which Bind to the Dimerization Initiation Site (DIS) of HIV RNA, Their Synthesis and Their Applications as Drugs” (priority 2006, published 2011).
“Also recorded” adds a separate entry of the source.

Tests used:
[1] = test system: subtype A DIS kissing-loop complex (23-mer RNA); assay: Lead(II)-induced cleavage of the DIS loop, 23-mer RNA (footprinting); assay type: binding, HIV-1; settings: for inhibition of lead-induced cleavage of the subtype A DIS loop: 25 μM aminoglycoside; for inhibition of lead-induced cleavage of the DIS loop, relative efficiency: FIG. 21
Procedure: (§1) Materials and Methods: Chemical footprinting experiments were performed on a 23-mer subtype A SL1 RNA or on RNA1-615, which corresponds to nucleotides 1-615 of HIV-1 Mal genomic RNA (Ennifar et al., J. Biol. Chem. 2003 278:2723-2730). Chemical modification was carried out either with dimethyl sulfate (DMS, Fluka) to test the accessibility of N1-A and N3-C positions or with lead acetate (Merck), which selectivity cleaves the subtype A DIS loop between the first and second nucleotides.
(§2) The binding of aminoglycosides to DIS can be detected through several biochemical methods: it induces protection toward chemical modification with dimethyl sulfate (DMS) or toward a specific cleavage in the subtype A promoted by lead (II); it also induces slower migration on non-denaturated gel.
At this stage, it was unclear if this class of compound is able to bind to the DIS kissing-loop complex. To compare binding of 4,5-disubstituted and 4,6-disubstituted DOS, a 23-mer RNA corresponding to the subtype A DIS, which was allowed to dimerize in conditions permitting crystallization of the kissing-loop complex, was used. As previously shown, lead (II) induced a specific cleavage in the subtype A DIS loop that is sensitive to the binding of aminoglycoside (FIG. 21).

[2] = test system: subtype A DIS in RNA1-615 (HIV-1 MAL genomic RNA); assay: DMS footprinting of aminoglycosides on RNA1-615 (subtype A DIS); assay type: binding; settings: for protection of A280 against methylation by DMS: 10 μM and above; for protection of A280 against methylation by DMS / protection against methylation by DMS: RNA1-615; for protection against methylation by DMS: even at 100 μM
Procedure: as §1, §2
Residues A272 and A280 of RNA1-615 are unpaired in the kissing-loop complex and are methylated by DMS at their N1 position. As previously observed (Baudin et al., J. Mol. Biol. 1993, 229:382-397; Paillart et al., J. Mol. Biol. 1997, 270:36-49), A280 is more reactive than A272, even though the latter nucleotide is flipped out of the helix, while the former is stacked inside the structure. […] On the other hand, A272, which is flipped out of the kissing-loop complex was not protected against methylation by DMS (FIG. 22B). […] Thus, even though these compounds bound to short DIS RNA in the same way as neomycin and lividomycin (FIGS. 19A and 19B), they were unable to efficiently recognize this target in the context of a large RNA.

[3] = test system: DIS kissing-loop complex of RNA1-615 (HIV-1 MAL, subtype A DIS); assay: Competition experiment: exchange of RNA 1-615 homodimer with RNA 1-311 (heterodimer formation); assay type: biochemical; settings: for heterodimer formation after addition of RNA1-311: 100 μM aminoglycoside, fivefold excess RNA1-311, up to one hour; for heterodimer formation after addition of RNA1-311 / heterodimer formed compared with dimer 12: 37° C.; for heterodimer formed compared with dimer 12: FIG. 14; for exchange of preformed RNA homodimers (1-615/1-615) with RNA (1-311): FIG. 13
Procedure: Materials and Methods: In a typical experiment, unlabeled 1-615 RNA (400 nM), together with a corresponding internally labeled RNA (3-5 nCi), were heated for 2 min at 90° C., chilled for 2 min on ice, and dimerization was initiated by addition of 2 μl of 5-fold concentrated dimerization buffer (final concentration: 50 mM sodium cacodylate, pH 7.5, 300 mM KCl, 5 mM MgCl2). After incubation at 37° C. for 20 min, 100 μM of aminoglycosides were added to the RNA mixture and incubation was continue for 15 min. Then, RNA 1-311 was added as a competitor and sample were collected at 2, 5, 10, 15, 20, 30, and 60 min and analyzed on 0.8% agarose gels (45 mM Tris borate pH 8.3, 01 mM MgCl2) at 4° C. Gels were fixed in TCA 10%, dried, and analyzed using a BAS 2000 Bio-Imager (Fuji).
The kissing-loop complex of radiolabeled RNA1-615 was formed, and then aminoglycosides at a 100 AM concentration were added. Next, a fivefold excess of unlabeled RNA1-311, encompassing nucleotides 1 to 311 of HIV-1 MAL genomic RNA, that also contains the subtype A DIS and is thus able to form a heterodimer with RNA1-615, was added (FIG. 24). Due to the dynamic nature of the kissing-loop complex, in the absence of aminoglycoside, greater than half of the radioactive material was shifted in the heterodimer within two minutes, and the RNA1-615 homodimer almost completely disappeared upon prolonged incubation. […] This observation is in keeping with the crystal structures showing that 4,5-disubstituted DOS form a bridge between the two RNA molecules (FIG. 18).
The aminoglycosides have also been investigated in solution. Their ability to stabilize the loop-loop interaction was investigated through competition experiments. Preformed RNA homodimers (1-615/1-615) were placed in the presence of the same but shorter RNA (1-311), and the kinetic of their exchanges was followed in the presence, or not, of aminoglycosides (FIG. 13).

[4] = test system: subtype B DIS of HIV-1 genomic RNA; assay: In situ DMS footprinting in infected CEMx174 cells and virions, subtype B DIS; settings: infected cells and viral particles; 3 mM aminoglycoside in culture
[5] = test system: subtype F kissing-loop complex; assay: DMS footprinting, subtype F DIS in the context of RNA1-615; assay type: binding, HIV-1
[6] = test system: DIS kissing-loop complex in RNA1-615 (HIV-1 MAL genomic RNA, subtype A DIS); assay: Lead-induced cleavage of RNA1-615, primer extension assay; assay type: binding
Procedure: as §1
To evaluate the capacity of 4,5-disubstituted DOS to bind to the DIS kissing-loop complex in a larger RNA presenting numerous unspecific binding sites, RNA1-615, which corresponds to nucleotides 1 to 615 of the HIV-1 MAL genomic RNA, was used.

[7] = test system: subtype A DIS of HIV-1 genomic RNA; assay: In situ DMS footprinting in infected CEMx174 cells and virions, subtype A DIS; settings: infected cells and viral particles; 3 mM aminoglycoside in culture
[8] = test system: subtype F DIS of HIV-1 genomic RNA; assay: In situ DMS footprinting in infected CEMx174 cells and virions, subtype F DIS; settings: infected cells and viral particles; 3 mM aminoglycoside in culture
[9] = test system: ribosomal A site; settings: Wong et al., Chem. Biol. 1998; cited from earlier work
[10] = test system: subtype B kissing-loop complex; assay: DMS footprinting, subtype B DIS; assay type: binding, HIV-1; settings: NL4.3 sequence
Procedure: as §1
The dimeric molecules also protect from DMS modification as neomycin (FIG. 10).
In addition, none of the 4,5-disubstituted DOS was bound to the subtype B kissing-loop complex.

[11] = subtype A, loop adenine A280 and guanine G274

NC[C@@H]1O[C@H](O[C@H]2[C@@H](O)[C@H](O[C@@H]3[C@@H](O)[C@H](N)C[C@H](N)[C@H]3O[C@H]3O[C@H](CO)[C@@H](O)C[C@H]3N)O[C@@H]2CO)[C@H](N)[C@@H](O)[C@@H]1O[C@H]1O[C@H](CO)[C@@H](O)[C@H](O)[C@@H]1O [lividomycin]
inhibition of lead-induced cleavage of the subtype A DIS loop [1]: completely inhibited
protection of A280 against methylation by DMS [2]: strongly protected A280 against methylation
heterodimer formation after addition of RNA1-311 [3]: only minimal amounts of heterodimer were formed
heterodimer formed compared with dimer 12 [3]: twice less heterodimer
exchange of preformed RNA homodimers (1-615/1-615) with RNA (1-311) [3]: almost totally abolish the exchange
protection of A280 against DMS methylation of subtype B DIS [4]: did not protect A280
binding to the subtype F kissing-loop complex by DMS footprinting [5]: efficiently bound
inhibition of lead-induced cleavage between A272 and G273 ([6]; 50 μM): almost completely inhibited
reduction of alkylation (DMS) of A280 of the subtype A DIS [7]: more than two-fold
reduction of alkylation (DMS) of A280 of the subtype F DIS [8]: more than two-fold

NC[C@H]1O[C@H](O[C@H]2[C@H](O)[C@@H](O)[C@H](N)C[C@@H]2N)[C@H](N)[C@@H](O)[C@@H]1O [neamine]
inhibition of lead-induced cleavage of the DIS loop, relative efficiency [1]: less efficient; also recorded: inhibited cleavage at lower concentration than the tricyclic ribostamycin
protection against methylation by DMS [2]: no protection against methylation
affinity for the ribosomal A site [9]: higher affinity than ribostamycin
binding to the subtype F kissing-loop complex by DMS footprinting [5]: did not bind
inhibition of lead-induced cleavage between A272 and G273 ([6]; even at 100 μM): no inhibition

NCC1O[C@H](O[C@@H]2C(N)C[C@@H](N)C(O)[C@H]2O[C@@H]2O[C@H](CO)C(O[C@H]3O[C@H](CN)[C@@H](O)C(O)C3N)[C@@H]2O)C(N)[C@@H](O)[C@@H]1O (some centres unmarked) [neomycin]
inhibition of lead-induced cleavage of the subtype A DIS loop [1]: completely inhibited
inhibition of lead-induced cleavage of the DIS loop, relative efficiency [1]: equally inhibited
interaction seen by DMS modification [10]: no significant interaction
protection of A280 against methylation by DMS [2]: strongly protected A280 against methylation
protection from DMS modification ([2]; Mal sequence): protect from DMS modification the bases implicated in the interaction
protection from DMS modification [2, 11]: protects from DMS modification the loop adenine A280 and the guanine G274
heterodimer formation after addition of RNA1-311 [3]: only minimal amounts of heterodimer were formed
heterodimer formed compared with dimer 12 [3]: twice less heterodimer
exchange of preformed RNA homodimers (1-615/1-615) with RNA (1-311) [3]: almost totally abolish the exchange
protection of A280 against DMS methylation of subtype B DIS [4]: did not protect A280
binding to the subtype F kissing-loop complex by DMS footprinting [5]: efficiently bound
inhibition of lead-induced cleavage between A272 and G273 ([6]; 50 μM): almost completely inhibited
reduction of alkylation (DMS) of A280 of the subtype A DIS [7]: more than two-fold
reduction of alkylation (DMS) of A280 of the subtype F DIS [8]: more than two-fold

NC[C@@H]1O[C@H](O[C@H]2[C@@H](O)[C@H](O[C@@H]3[C@@H](O)[C@H](N)C[C@H](N)[C@H]3O[C@H]3O[C@H](CO)[C@@H](O)[C@H](O)[C@H]3N)O[C@@H]2CO)[C@H](N)[C@@H](O)[C@@H]1O [paromomycin]
interaction seen by DMS modification [10]: no significant interaction
protection from DMS modification ([2]; Mal sequence): protect from DMS modification the bases implicated in the interaction
heterodimer formation after addition of RNA1-311 [3]: only minimal amounts of heterodimer were formed
heterodimer formed compared with dimer 12 [3]: twice less heterodimer
exchange of preformed RNA homodimers (1-615/1-615) with RNA (1-311) [3]: almost totally abolish the exchange
protection of A280 against DMS methylation of subtype B DIS [4]: did not protect A280
reduction of alkylation (DMS) of A280 of the subtype A DIS [7]: more than two-fold

NC[C@H]1O[C@H](O[C@H]2[C@H](O[C@@H]3O[C@H](CO)[C@@H](O)[C@H]3O)[C@@H](O)[C@H](N)C[C@@H]2N)[C@H](N)[C@@H](O)[C@@H]1O [ribostamycin]
inhibition of lead-induced cleavage of the DIS loop, relative efficiency [1]: less efficient
protection against methylation by DMS [2]: no protection against methylation
binding to the subtype F kissing-loop complex by DMS footprinting [5]: did not bind
inhibition of lead-induced cleavage between A272 and G273 ([6]; even at 100 μM): no inhibition

NC[C@H]1O[C@H](O[C@H]2[C@H](O)[C@@H](O[C@H]3O[C@H](CO)[C@@H](O)[C@H](N)[C@H]3O)[C@H](N)C[C@@H]2N)[C@H](N)C[C@@H]1O [tobramycin]
protection from DMS modification [2, 11]: no protection
